Measurements as given in patent US7812022B2 (GlaxoSmithKline LLC, priority 2004, dated 2010).

Experiments:
[1] = system: BT474 and HN5 tumor cell lines; test: Methylene blue growth inhibition assay (cellular Method A); type: cell-based, Human; details: Homo sapiens, BT-474, 72 h, 3 days, read-out: Activity (Method): growth inhibition IC50 class
In short: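 Growth inhibition measured by methylene blue staining of biomass (OD 620) after 3 days' compound exposure at 37° C, final DMSO 0.3%. Cell lines: BT474 (10,000/well), HN5 (3,000/well) and Colo205, all in DMEM with 10% FBS; IC50 fitted by nonlinear regression against vehicle-treated wells.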

ErbB2 or EGFR = target: T1, ErbB2 or EGFR; test: ErbB family substrate phosphorylation enzyme assay (HTRF), Method A or Method B; type: biochemical
T1 construct: enzymes purified from a baculovirus expression system; Reagent production was conducted essentially as described in Brignola, P. S., et al, (2002) J. Biol. Chem. 277(2): 1576-1585
In short: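 Baculovirus-expressed EGFR or ErbB2 (0.8 or 10 nM in enzyme mix) phosphorylates biotinylated Peptide C with 20 µM ATP and 0.8 µM peptide (substrate-mix levels), MnCl2, pH 7.5. Reaction ran 90 min at 20 °C with EDTA stop and HTRF anti-phosphotyrosine read. Method A: enzyme added last; Method B: 1 h enzyme–compound preincubation.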

[2] = Method A: substrate mix added first, reaction started with enzyme mix
[3] = Method B: enzyme mix pre-incubated with compound 1 hour at 20° C., started with substrate mix

SMILES: O=C(Nc1cccc(-c2nn3ccccc3c2-c2ccnc(Nc3cccc(N4CCCC4=O)c3)n2)c1)c1cc(F)ccc1F [Example 49, 2,5-Difluoro-N-{3-[3-(2-{[3-(2-oxo-1-pyrrolidinyl)phenyl]amino}-4-pyrimidinyl)pyrazolo[1,5-a]pyridin-2-yl]phenyl}benzamide]
- IC50 [1]: 100 to 1000 nM
- Activity (Method): pIC50 class against ErbB2 or EGFR (ErbB2 or EGFR; [2]): +++ (A) (at least one pIC50 measurement of greater than 7 against either ErbB2 or EGFR)

SMILES: CCS(=O)(=O)Cc1ccc(Nc2nccc(-c3c(-c4cccc(NC(=O)c5cc(F)ccc5F)c4)nn4ccccc34)n2)cc1 [Example 51, N-(3-{3-[2-({4-[(ethylsulfonyl)methyl]phenyl}amino)-4-pyrimidinyl]pyrazolo[1,5-a]pyridin-2-yl}phenyl)-2,5-difluorobenzamide]
- IC50 [1]: 100 to 1000 nM
- Activity (Method): pIC50 class against ErbB2 or EGFR (ErbB2 or EGFR; [2]): +++ (A) (at least one pIC50 measurement of greater than 7 against either ErbB2 or EGFR)

SMILES: Cc1ccc(Nc2nccc(-c3c(-c4cccc(NC(=O)c5cc(F)ccc5F)c4)nn4ccccc34)n2)cc1S(N)(=O)=O [Example 52, N-{3-[3-(2-{[3-(Aminosulfonyl)-4-methylphenyl]amino}-4-pyrimidinyl)pyrazolo[1,5-a]pyridin-2-yl]phenyl}-2,5-difluorobenzamide]
- IC50 [1]: 100 to 1000 nM
- Activity (Method): pIC50 class against ErbB2 or EGFR (ErbB2 or EGFR; [2]): +++ (A) (at least one pIC50 measurement of greater than 7 against either ErbB2 or EGFR)

SMILES: CS(=O)(=O)Cc1ccc(Nc2nccc(-c3c(-c4cccc(NC(=O)c5cc(F)ccc5F)c4)nn4ccccc34)n2)cc1 [Example 53, 2,5-Difluoro-N-(3-{3-[2-({4-[(methylsulfonyl)methyl]-phenyl}amino)-4-pyrimidinyl]pyrazolo[1,5-a]pyridin-2-yl}phenyl)benzamide]
- IC50 [1]: 100 to 1000 nM
- Activity (Method): pIC50 class against ErbB2 or EGFR (ErbB2 or EGFR; [2]): ++ (A) (at least one pIC50 measurement greater than 6 against either ErbB2 or EGFR but no measurement greater than pIC50 of 7)

SMILES: CN1CCc2ccc(Nc3nccc(-c4c(-c5cccc(NC(=O)c6ccccc6)c5)nn5ccccc45)n3)cc2C1 [Example 63, N-[3-(3-{2-[(2-methyl-1,2,3,4-tetrahydro-7-isoquinolinyl)amino]-4-pyrimidinyl}pyrazolo[1,5-a]pyridin-2-yl)phenyl]benzamide]
- IC50 [1]: < 100 nM
- Activity (Method): pIC50 class against ErbB2 or EGFR (ErbB2 or EGFR; [3]): +++ (B) (at least one pIC50 measurement of greater than 7 against either ErbB2 or EGFR)

SMILES: O=C(Nc1cccc(-c2nn3ccccc3c2-c2ccnc(Nc3ccc4c(c3)CNCC4)n2)c1)c1c(F)cccc1F [Example 64, 2,6-Difluoro-N-(3-{3-[2-(1,2,3,4-tetrahydro-7-isoquinolinylamino)-4-pyrimidinyl]pyrazolo[1,5-a]pyridin-2-yl}phenyl)benzamide]
- IC50 [1]: < 100 nM
- Activity (Method): pIC50 class against ErbB2 or EGFR (ErbB2 or EGFR; [3]): +++ (B) (at least one pIC50 measurement of greater than 7 against either ErbB2 or EGFR)

SMILES: O=C(Nc1cccc(-c2nn3ccccc3c2-c2ccnc(Nc3ccc4cnccc4c3)n2)c1)c1c(F)cccc1F [Example 65, 2,6-Difluoro-N-(3-{3-[2-(6-isoquinolinylamino)-4-pyrimidinyl]pyrazolo[1,5-a]pyridin-2-yl}phenyl)benzamide]
- IC50 [1]: > 1000 nM
- Activity (Method): pIC50 class against ErbB2 or EGFR (ErbB2 or EGFR; [3]): ++ (B) (at least one pIC50 measurement greater than 6 against either ErbB2 or EGFR but no measurement greater than pIC50 of 7)

SMILES: O=C(Nc1cccc(-c2nn3ccccc3c2-c2ccnc(Nc3cccc(F)c3)n2)c1)c1cccnc1 [Example 66, N-[3-(3-{2-[(3-fluorophenyl)amino]-4-pyrimidinyl}pyrazolo[1,5-a]pyridin-2-yl)phenyl]-3-pyridinecarboxamide]
- IC50 [1]: 100 to 1000 nM
- Activity (Method): pIC50 class against ErbB2 or EGFR (ErbB2 or EGFR; [3]): ++ (B) (at least one pIC50 measurement greater than 6 against either ErbB2 or EGFR but no measurement greater than pIC50 of 7)

SMILES: O=C(Nc1cccc(-c2nn3ccccc3c2-c2ccnc(Nc3cccc(F)c3)n2)c1)c1ccno1 [Example 67, N-[3-(3-{2-[(3-fluorophenyl)amino]-4-pyrimidinyl}pyrazolo[1,5-a]pyridin-2-yl)phenyl]-5-isoxazolecarboxamide]
- IC50 [1]: 100 to 1000 nM
- Activity (Method): pIC50 class against ErbB2 or EGFR (ErbB2 or EGFR; [3]): +++ (B) (at least one pIC50 measurement of greater than 7 against either ErbB2 or EGFR)

SMILES: O=C(Nc1cccc(-c2nn3ccccc3c2-c2ccnc(Nc3cccc(F)c3)n2)c1)c1ccccc1OC(F)(F)F [Example 68, N-[3-(3-{2-[(3-fluorophenyl)amino]-4-pyrimidinyl}-pyrazolo[1,5-a]pyridin-2-yl)phenyl]-2-[(trifluoromethyl)oxy]benzamide]
- IC50 [1]: 100 to 1000 nM
- Activity (Method): pIC50 class against ErbB2 or EGFR (ErbB2 or EGFR; [3]): ++ (B) (at least one pIC50 measurement greater than 6 against either ErbB2 or EGFR but no measurement greater than pIC50 of 7)

SMILES: COc1ccccc1C(=O)Nc1cccc(-c2nn3ccccc3c2-c2ccnc(Nc3cccc(F)c3)n2)c1 [Example 69, N-[3-(3-{2-[(3-fluorophenyl)amino]-4-pyrimidinyl}pyrazolo[1,5-a]pyridin-2-yl)phenyl]-2-(methyloxy)benzamide]
- IC50 [1]: 100 to 1000 nM
- Activity (Method): pIC50 class against ErbB2 or EGFR (ErbB2 or EGFR; [3]): +++ (B) (at least one pIC50 measurement of greater than 7 against either ErbB2 or EGFR)

SMILES: Cc1cccc(C(=O)Nc2cccc(-c3nn4ccccc4c3-c3ccnc(Nc4cccc(F)c4)n3)c2)c1Cl [Example 70, 2-Chloro-N-[3-(3-{2-[(3-fluorophenyl)amino]-4-pyrimidinyl}pyrazolo[1,5-a]pyridin-2-yl)phenyl]-3-methylbenzamide]
- IC50 [1]: 100 to 1000 nM
- Activity (Method): pIC50 class against ErbB2 or EGFR (ErbB2 or EGFR; [3]): ++ (B) (at least one pIC50 measurement greater than 6 against either ErbB2 or EGFR but no measurement greater than pIC50 of 7)

SMILES: Cc1c(F)cccc1C(=O)Nc1cccc(-c2nn3ccccc3c2-c2ccnc(Nc3cccc(F)c3)n2)c1 [Example 71, 3-Fluoro-N-[3-(3-{2-[(3-fluorophenyl)amino]-4-pyrimidinyl}pyrazolo[1,5-a]pyridin-2-yl)phenyl]-2-methylbenzamide]
- IC50 [1]: 100 to 1000 nM
- Activity (Method): pIC50 class against ErbB2 or EGFR (ErbB2 or EGFR; [3]): ++ (B) (at least one pIC50 measurement greater than 6 against either ErbB2 or EGFR but no measurement greater than pIC50 of 7)

SMILES: Cc1ccc(F)c(C(=O)Nc2cccc(-c3nn4ccccc4c3-c3ccnc(Nc4cccc(F)c4)n3)c2)c1F [Example 72, 2,6-Difluoro-N-[3-(3-{2-[(3-fluorophenyl)amino]-4-pyrimidinyl}pyrazolo[1,5-a]pyridin-2-yl)phenyl]-3-methylbenzamide]
- IC50 [1]: 100 to 1000 nM
- Activity (Method): pIC50 class against ErbB2 or EGFR (ErbB2 or EGFR; [3]): ++ (B) (at least one pIC50 measurement greater than 6 against either ErbB2 or EGFR but no measurement greater than pIC50 of 7)

SMILES: O=C(Nc1cccc(-c2nn3ccccc3c2-c2ccnc(Nc3cccc(F)c3)n2)c1)c1ccnc(Cl)c1 [Example 73, 2-Chloro-N-[3-(3-{2-[(3-fluorophenyl)amino]-4-pyrimidinyl}pyrazolo[1,5-a]pyridin-2-yl)phenyl]-4-pyridinecarboxamide]
- IC50 [1]: > 1000 nM
- Activity (Method): pIC50 class against ErbB2 or EGFR (ErbB2 or EGFR; [3]): ++ (B) (at least one pIC50 measurement greater than 6 against either ErbB2 or EGFR but no measurement greater than pIC50 of 7)

SMILES: O=C(Nc1cccc(-c2nn3ccccc3c2-c2ccnc(Nc3cccc(F)c3)n2)c1)c1ccc(Cl)nc1 [Example 74, 6-Chloro-N-[3-(3-{2-[(3-fluorophenyl)amino]-4-pyrimidinyl}pyrazolo[1,5-a]pyridin-2-yl)phenyl]-3-pyridinecarboxamide]
- IC50 [1]: 100 to 1000 nM
- Activity (Method): pIC50 class against ErbB2 or EGFR (ErbB2 or EGFR; [3]): ++ (B) (at least one pIC50 measurement greater than 6 against either ErbB2 or EGFR but no measurement greater than pIC50 of 7)

SMILES: O=C(Nc1cccc(-c2nn3ccccc3c2-c2ccnc(Nc3cccc(F)c3)n2)c1)c1ccncc1 [Example 75, N-[3-(3-{2-[(3-Fluorophenyl)amino]-4-pyrimidinyl}pyrazolo[1,5-a]pyrindin-2-yl)phenyl]-4-pyridinecarboxamide]
- IC50 [1]: 100 to 1000 nM
- Activity (Method): pIC50 class against ErbB2 or EGFR (ErbB2 or EGFR; [3]): +++ (B) (at least one pIC50 measurement of greater than 7 against either ErbB2 or EGFR)

SMILES: Cc1ccsc1C(=O)Nc1cccc(-c2nn3ccccc3c2-c2ccnc(Nc3cccc(F)c3)n2)c1 [Example 77, N-[3-(3-{2-[(3-fluorophenyl)amino]-4-pyrimidinyl}pyrazolo[1,5-a]pyridin-2-yl)phenyl]-3-methyl-2-thiophenecarboxamide]
- IC50 [1]: 100 to 1000 nM
- Activity (Method): pIC50 class against ErbB2 or EGFR (ErbB2 or EGFR; [3]): +++ (B) (at least one pIC50 measurement of greater than 7 against either ErbB2 or EGFR)

SMILES: O=C(Nc1cccc(-c2nn3ccccc3c2-c2ccnc(Nc3cccc(F)c3)n2)c1)c1sccc1Cl [Example 79, 3-Chloro-N-[3-(3-{2-[(3-fluorophenyl)amino]-4-pyrimidinyl}pyrazolo[1,5-a]pyridin-2-yl)phenyl]-2-thiophenecarboxamide]
- IC50 [1]: 100 to 1000 nM
- Activity (Method): pIC50 class against ErbB2 or EGFR (ErbB2 or EGFR; [3]): ++ (B) (at least one pIC50 measurement greater than 6 against either ErbB2 or EGFR but no measurement greater than pIC50 of 7)

SMILES: O=C(Nc1cccc(-c2nn3ccccc3c2-c2ccnc(Nc3cccc(F)c3)n2)c1)c1sccc1Br [Example 80, 3-Bromo-N-[3-(3-{2-[(3-fluorophenyl)amino]-4-pyrimidinyl}pyrazolo[1,5-a]pyridin-2-yl)phenyl]-2-thiophenecarboxamide]
- IC50 [1]: 100 to 1000 nM
- Activity (Method): pIC50 class against ErbB2 or EGFR (ErbB2 or EGFR; [3]): ++ (B) (at least one pIC50 measurement greater than 6 against either ErbB2 or EGFR but no measurement greater than pIC50 of 7)
